In patent US8609362B2, “G-proteins” (Givaudan SA, priority 2002, dated 2013):
Where two headings read alike, the source gives them in different places. Residues, ends and D or L forms follow the SMILES beside them.

Assays:
human TAS1R2/TAS1R3 = biological target: T1, human TAS1R2/TAS1R3 (Homo sapiens, UniProt Q7RTX0+Q8TE23); assay: Fluo-4 calcium assay, cells transfected with human sweet receptor TAS1R2/TAS1R3 and expressing a promiscuous G-protein; assay type: cell-based; conditions: for fluorescence signal with Gα16-gustducin 44, times stronger than wild-type Gα16: HEK293T cells; for fluorescence signal with Gα16-gustducin 44, times stronger than wild-type Gα16 / fluorescence signal (in words): ligand 2.5 mM
T1 construct: expressed in transfected cells; host or cells: HEK293T cells stably expressing the G-protein, co-transfected with T1R2 and T1R3 cDNA
T1 sequence (Q8TE23 20-839): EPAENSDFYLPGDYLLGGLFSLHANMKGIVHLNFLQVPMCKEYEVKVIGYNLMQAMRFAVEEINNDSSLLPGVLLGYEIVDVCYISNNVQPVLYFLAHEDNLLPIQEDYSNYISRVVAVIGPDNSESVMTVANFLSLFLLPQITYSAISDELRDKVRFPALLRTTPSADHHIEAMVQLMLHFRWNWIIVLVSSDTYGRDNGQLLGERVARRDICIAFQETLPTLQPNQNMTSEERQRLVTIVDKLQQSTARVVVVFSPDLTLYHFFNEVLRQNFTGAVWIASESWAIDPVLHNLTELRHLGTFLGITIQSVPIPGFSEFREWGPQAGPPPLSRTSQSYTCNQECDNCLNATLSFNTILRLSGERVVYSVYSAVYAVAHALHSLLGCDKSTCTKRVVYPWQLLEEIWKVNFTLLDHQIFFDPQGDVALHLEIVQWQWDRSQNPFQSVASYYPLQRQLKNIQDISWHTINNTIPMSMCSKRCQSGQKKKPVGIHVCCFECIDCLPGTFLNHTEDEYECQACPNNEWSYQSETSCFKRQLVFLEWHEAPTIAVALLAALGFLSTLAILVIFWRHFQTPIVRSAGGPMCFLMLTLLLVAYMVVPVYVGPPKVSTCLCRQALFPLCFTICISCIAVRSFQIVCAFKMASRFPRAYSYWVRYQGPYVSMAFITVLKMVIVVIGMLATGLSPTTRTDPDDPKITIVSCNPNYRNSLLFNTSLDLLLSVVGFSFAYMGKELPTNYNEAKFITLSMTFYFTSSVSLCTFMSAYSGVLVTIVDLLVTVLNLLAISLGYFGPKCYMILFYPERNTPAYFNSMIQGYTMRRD
T1 sequence (Q7RTX0 21-852): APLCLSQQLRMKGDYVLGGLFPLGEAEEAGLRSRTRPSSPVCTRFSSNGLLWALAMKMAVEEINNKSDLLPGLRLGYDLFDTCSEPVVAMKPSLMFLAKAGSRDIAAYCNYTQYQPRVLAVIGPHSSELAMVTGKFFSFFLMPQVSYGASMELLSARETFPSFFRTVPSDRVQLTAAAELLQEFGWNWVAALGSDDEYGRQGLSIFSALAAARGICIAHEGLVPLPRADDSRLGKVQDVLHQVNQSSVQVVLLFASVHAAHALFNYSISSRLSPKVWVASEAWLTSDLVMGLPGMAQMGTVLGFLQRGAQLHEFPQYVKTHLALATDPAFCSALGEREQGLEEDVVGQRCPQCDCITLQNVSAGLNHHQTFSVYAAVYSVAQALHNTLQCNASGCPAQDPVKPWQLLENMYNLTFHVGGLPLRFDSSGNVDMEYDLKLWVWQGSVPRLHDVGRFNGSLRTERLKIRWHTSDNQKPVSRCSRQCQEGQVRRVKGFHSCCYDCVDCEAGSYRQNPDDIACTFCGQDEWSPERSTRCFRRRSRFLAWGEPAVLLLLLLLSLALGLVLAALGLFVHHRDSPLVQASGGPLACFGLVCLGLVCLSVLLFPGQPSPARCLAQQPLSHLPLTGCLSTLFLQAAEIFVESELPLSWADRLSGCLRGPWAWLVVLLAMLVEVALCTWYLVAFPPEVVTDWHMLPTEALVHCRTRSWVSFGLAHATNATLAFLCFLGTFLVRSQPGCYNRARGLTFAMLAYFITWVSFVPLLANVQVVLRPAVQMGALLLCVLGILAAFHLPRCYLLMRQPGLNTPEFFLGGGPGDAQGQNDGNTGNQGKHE
Experimental: (§1) At day 0, cells stably expressing the G-protein are plated in a 6-well plate at a density of 800,000-950,000 cells per well and grown overnight in selective growth media. On day 1, the media is changed to an antibiotic-free growth media and the cells are transfected using 2 μg of T1 R2 and 2 μg of T1 R3 cDNA and 10 μl of Lipofectamine 2000 (Invitrogen). The cells are maintained overnight in antibiotic-free growth media. On day 2, the cells are replated into a black, clear-bottom 96 well plate at 20,000 cells per well and grown overnight. The morning of the calcium assay, the media is replaced with low glucose media supplemented with Glutamax and dialyzed FBS to minimize receptor desensitization by sugars and glutamate. The cells are further incubated in this media for 6 hours at 37 degrees C. At the end of this period, the cells are processed for the calcium assay according to conditions described above.
(§2) Following the methodology as described in Example 5 the following results were obtained: […]

mouse T2R5 = biological target: T2, mouse T2R5 (Mus musculus, UniProt Q9JKT4); assay: Fluo-4 calcium assay, cells transfected with mouse bitter receptor T2R5 and expressing a promiscuous G-protein; assay type: cell-based; conditions: for increase in mean fluorescence over baseline following ligand addition: ligand 10 μM
T2 construct: expressed in transfected cells; host or cells: HEK293T cells stably expressing Gα16gustducin44 or Gα16
T2 sequence (Q9JKT4 1-300): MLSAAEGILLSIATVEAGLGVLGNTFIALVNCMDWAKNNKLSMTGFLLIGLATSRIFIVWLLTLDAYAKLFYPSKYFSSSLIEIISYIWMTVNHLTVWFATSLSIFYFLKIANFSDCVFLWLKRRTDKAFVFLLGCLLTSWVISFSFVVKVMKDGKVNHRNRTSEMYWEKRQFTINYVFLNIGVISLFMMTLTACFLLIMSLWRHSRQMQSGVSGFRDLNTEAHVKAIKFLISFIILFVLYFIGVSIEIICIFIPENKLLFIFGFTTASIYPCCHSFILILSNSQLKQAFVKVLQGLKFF
Experimental: (§3) At day 0, cells stably expressing the G-protein are plated in black, clear-bottom 96-well plate at 20,000 cells per well and grown overnight in selective growth media. On day 1, the media is changed to an antibiotic-free growth media and the cells are transfected using 300 ng GPCR DNA and 0.6 μl of Lipofectamine 2000 (Invitrogen). The cells are grown overnight and processed the next day using the Fluo-4 calcium assay conditions described in Example 2 above.
as §2

[1] = system: sham transfected (control); assay: Fluo-4 calcium assay, sham transfected control cells of Table 2; assay type: cell-based
Experimental: as §3, §2

human TAS2R16 = biological target: T3, human TAS2R16 (Homo sapiens, UniProt Q9NYV7); assay: Fluo-4 calcium assay, cells transiently transfected with human TAS2R16 and expressing a promiscuous G-protein; assay type: cell-based; conditions: ligand 5 mM; for fluorescent signal with Gα16-gustducin 44, times stronger than reference chimeric G-protein Gα16-z44 / fluorescent signal with Gα16-gustducin 44, times stronger than wild-type Gα16: HEK293T cells, Flexstation; for fluorescent signal with Gα16-gustducin 44, times stronger than reference chimeric G-protein Gα16-z44 / fluorescent signal with Gα16-gustducin 44, times stronger than wild-type Gα16 / fluorescent signal (in words): TAS2R16; for increase in mean fluorescence over baseline following ligand addition: human TAS2R16
T3 construct: expressed in transfected cells; host or cells: HEK293T cells stably expressing Gα16gustducin44, Gα16 or Gα16z44
T3 sequence (Q9NYV7 1-291): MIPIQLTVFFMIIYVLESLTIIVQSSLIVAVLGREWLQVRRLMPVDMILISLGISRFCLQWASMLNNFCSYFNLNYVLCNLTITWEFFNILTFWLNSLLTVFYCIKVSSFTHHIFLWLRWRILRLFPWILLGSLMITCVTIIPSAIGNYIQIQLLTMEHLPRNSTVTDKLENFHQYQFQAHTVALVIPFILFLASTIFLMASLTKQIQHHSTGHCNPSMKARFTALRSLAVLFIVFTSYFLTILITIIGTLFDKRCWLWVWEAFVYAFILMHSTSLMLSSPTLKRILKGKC
Experimental: The protocol is described in “G-protein coupled receptors (Signal Transduction Series)”; Editors: Tatsuya Haga and Gabriel Berstein, 1st ed., 424 pp.CRC Press—Boca Raton, Fla.; September 1999, and may be summarised as follows: • 1. Day 0: 96-well plates are seeded with 20K cells per well and maintained at 37 degrees C. overnight in nutritive growth media. • 2. Day 1: Cells are transfected using 300 ng of GPCR DNA and 0.6 μl of Lipofectamine 2000 (Invitrogen) per well. Transfected cells are and maintained at 37 degrees C. overnight in nutritive growth media. • 3.
as §3

[2] = system: sham transfected (control); assay: Fluo-4 calcium assay, sham transfected control cells of Table 1; assay type: cell-based
Experimental: as §3

[3] = system: G-protein only (control w/o tetracycline); assay: Fluo-4 calcium assay, G-protein only control w/o tetracycline (TAS2R38 cell line); assay type: cell-based; conditions: Gα16gustducin44, ligand 250 μM
Text: (§4) The following results were obtained:

human TAS2R38 = biological target: T4, human TAS2R38 (Homo sapiens, UniProt P59533); assay: Fluo-4 calcium assay, tetracycline-inducible cells stably expressing human TAS2R38 and G16gust44; assay type: cell-based; conditions: ligand 250 μM; for fluorescence signal (in words): HEK293 T-Rex cells, TAS2R38, G16-gustducin 44
T4 construct: expressed in transfected cells
T4 sequence (P59533 1-333): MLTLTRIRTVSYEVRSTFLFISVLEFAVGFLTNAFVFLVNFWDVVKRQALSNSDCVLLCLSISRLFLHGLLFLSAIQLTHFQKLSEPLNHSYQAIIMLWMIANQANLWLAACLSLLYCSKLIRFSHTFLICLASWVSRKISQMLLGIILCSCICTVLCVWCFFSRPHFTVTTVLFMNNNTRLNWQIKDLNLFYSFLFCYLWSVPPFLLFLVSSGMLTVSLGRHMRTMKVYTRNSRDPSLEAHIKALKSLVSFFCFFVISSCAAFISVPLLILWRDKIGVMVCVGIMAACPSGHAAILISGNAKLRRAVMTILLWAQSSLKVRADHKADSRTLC
Text: as §4

[4] = system: G-protein only (control w/o tetracycline); conditions: Gα16gustducin44, ligand 250 μM
Experimental: All assays are performed using black, clear-bottom 96-well plates that have been seeded the day before with 20K transfected cells per well and have been maintained at 37 degrees C. overnight in appropriate growth media. At the time of the assay, the growth media is discarded and cells are incubated for 1 hour (at room temperature in the dark) with 75 μl of a calcium assay solution consisting of 1.5 μM Fluo-4 AM (Molecular Probes) and 2.5 mM probenicid (Sigma-Aldrich) dissolved in a Hanks balanced salts solution (HBSS) that has been supplemented with 10 mM Hepes, 200 μM calcium chloride and 0.1% bovine serum albumin, pH 7.4 at 37 degrees C. […] For assay reading, the plate is placed in a fluorescent microplate reader, for example the Flexstation (Molecular Devices), and receptor activation is initiated following addition of 20 μl of a 10× concentrated ligand stock solution. Fluorescence is continuously monitored for 15 seconds prior to ligand addition and for 45-75 seconds after ligand addition. Receptor activation levels are defined as by the two following equations: % Activation=(Maximum fluorescence−baseline fluorescence/baseline fluorescence)*100 or Fluorescence Increase=Maximum Fluorescence—baseline fluorescence, where baseline fluorescence represents the average fluorescence levels prior to ligand addition. […]

[5] = system: sham transfected (control); assay: Fluo-4 calcium assay, sham transfected control cells of Table 7; assay type: cell-based
Experimental: as §1, §2

[6] = G-protein Gα16gustducin44, ligand 2.5 mM

SMILES: CC1=CC(=O)[N-]S(=O)(=O)O1.[K+] [acesulfame K]
- fluorescence signal with Gα16-gustducin 44, times stronger than wild-type Gα16 (human TAS1R2/TAS1R3): 2 times
- fluorescence signal (in words) (human TAS1R2/TAS1R3): robust flurorescence signal

SMILES: COC(=O)[C@H](Cc1ccccc1)NC(=O)[C@@H](N)CC(=O)O [aspartame] (H-Asp-Phe-OMe)
- fluorescence signal with Gα16-gustducin 44, times stronger than wild-type Gα16 (human TAS1R2/TAS1R3): 2 times
- fluorescence signal (in words) (human TAS1R2/TAS1R3): robust flurorescence signal

SMILES: C[C@@H]1C[C@@H]([C@H](O)CC2CC(=O)NC(=O)C2)C(=O)[C@@H](C)C1 [cycloheximide]
- fluorescence signal (in words) (mouse T2R5; HEK293T cells, mouse T2R5, Gα16-gustducin 44, ligand 10 uM): robust flurorescence signal
- fluorescence signal with Gα16-gustducin 44, times stronger than wild-type Gα16 (mouse T2R5; HEK293T cells, mouse T2R5, ligand 10 uM): 5 times
- increase in mean fluorescence over baseline following ligand addition (mouse T2R5; mouse T2R5, G-protein Gα16): 2569 RFUs
- increase in mean fluorescence over baseline following ligand addition (mouse T2R5; mouse T2R5, G-protein Gα16gustducin44): 10407 RFUs
- increase in mean fluorescence over baseline following ligand addition ([1]; G-protein Gα16, ligand 10 μM): 1705 RFUs
- increase in mean fluorescence over baseline following ligand addition ([1]; G-protein Gα16gustducin44, ligand 10 μM): 3989 RFUs

SMILES: OC[C@H]1O[C@@H](Oc2ccccc2)[C@H](O)[C@@H](O)[C@@H]1O [phenyl-β-D-glucopyranoside]
- fluorescent signal with Gα16-gustducin 44, times stronger than reference chimeric G-protein Gα16-z44 (human TAS2R16): about 3 times
- fluorescent signal with Gα16-gustducin 44, times stronger than wild-type Gα16 (human TAS2R16): about 7 times
- fluorescent signal (in words) (human TAS2R16): robust fluorescent signal
- receptor activation following ligand stimulation, Gα16gustducin44 cells compared with Gα16 cells (in words) (human TAS2R16; hTAS2R16): greater degree of receptor activation
- increase in mean fluorescence over baseline following ligand addition (human TAS2R16; G-protein Gα16): 3494 RFUs
- increase in mean fluorescence over baseline following ligand addition (human TAS2R16; G-protein Gα16gustducin44): 23821 RFUs
- increase in mean fluorescence over baseline following ligand addition (human TAS2R16; G-protein Gα16z44): 8296 RFUs
- increase in mean fluorescence over baseline following ligand addition ([2]; G-protein Gα16, ligand 5 mM): 1024 RFUs
- increase in mean fluorescence over baseline following ligand addition ([2]; G-protein Gα16gustducin44, ligand 5 mM): 2162 RFUs
- increase in mean fluorescence over baseline following ligand addition ([2]; G-protein Gα16z44, ligand 5 mM): 1541 RFUs

SMILES: NC(=S)Nc1ccccc1 [phenylthiocarbamide]
- increase in mean fluorescence over baseline following ligand addition [3]: 3422 RFUs
- increase in mean fluorescence over baseline following ligand addition (human TAS2R38; G-protein + human TAS2R38 (with tetracycline), Gα16gustducin44): 8989 RFUs
- fluorescence signal (in words) (human TAS2R38): robust fluorescence signal

SMILES: CCCc1cc(=O)[nH]c(=S)[nH]1 [propythiouracil]
- fluorescence signal (in words) (human TAS2R38): robust response

SMILES: OCc1ccccc1O[C@@H]1O[C@H](CO)[C@@H](O)[C@H](O)[C@H]1O [salicin]
- fluorescent signal with Gα16-gustducin 44, times stronger than reference chimeric G-protein Gα16-z44 (human TAS2R16): about 3 times
- fluorescent signal with Gα16-gustducin 44, times stronger than wild-type Gα16 (human TAS2R16): about 7 times
- fluorescent signal (in words) (human TAS2R16): robust fluorescent signal

SMILES: O=C1C[C@@H]2OCC=C3CN4CC[C@]56c7ccccc7N1[C@H]5[C@H]2[C@H]3C[C@H]46 [strychnine]
- increase in mean fluorescence over baseline following ligand addition [4]: 13238 RFUs

SMILES: OC[C@H]1O[C@H](O[C@]2(CCl)O[C@H](CCl)[C@@H](O)[C@@H]2O)[C@H](O)[C@@H](O)[C@H]1Cl [sucralose]
- increase in mean fluorescence over baseline following ligand addition (human TAS1R2/TAS1R3; G-protein Gα15, ligand 2.5 mM): 1300 RFUs
- increase in mean fluorescence over baseline following ligand addition (human TAS1R2/TAS1R3; [6]): 4617 RFUs
- fluorescence signal with Gα16-gustducin 44, times stronger than wild-type Gα16 (human TAS1R2/TAS1R3): 2 times
- fluorescence signal (in words) (human TAS1R2/TAS1R3): robust flurorescence signal
- increase in mean fluorescence over baseline following ligand addition ([5]; G-protein Gα15, ligand 2.5 mM): 643 RFUs
- increase in mean fluorescence over baseline following ligand addition [5, 6]: 1370 RFUs
